The record followed here is patent US5559209A, “Regulator regions of G proteins” (The General Hospital Corporation, priority 1993, dated 1996).

Where no end group is shown, it is not given here.

The target in assay [1] is T1, Gi2 (Bos taurus, UniProt A7MBH9).
T1 construct: trimeric Gi2 (i.e., Gi2 αβγ) purified from bovine brain to near homogeneity; from tissue; host or cells: bovine brain
In words: GTPγS binding, TrM-peptide 14-induced Gi2 activation in phospholipid vesicles. It counts as biochemical, bovine. As to conditions: 0.3 nM Gi2 in phospholipid vesicles, 100 nM TrM-peptide 14; read-out: IC50, inhibition of TrM-peptide 14 stimulation of Gi2. How it is done: Materials and Methods The in vitro assays described below utilize the couplone portion of each of a number of G-coupled receptors, instead of an intact receptor molecule, as a means for activating the corresponding anticouplone or intact G-protein. […]
GTPγS binding Assay--GTPγS binding to G proteins was assayed at 37° C. in 20 mM Hepes/NaOH buffer (pH 7.4) containing 130 μM MgCl2, 110 μM EDTA and 60 nM [^35 S]GTPγS, as described previously (Okamoto et al., 1990). […] The total amount of G protein was measured as maximal GTPγS binding at room temperature, as described (Okamoto et al., Cell 67:723-730, 1991a). […] Thus, the apparent first-order rate constant for GTPγS binding (kapp), which is equal to the slope of the tangent to the GTPγS binding curve at time 0 and represents the actual GTPγS binding rate, was calculated from this equation.
Transmembrane domain-connected peptide 14 ["TrM-peptide 14"; […] […] In one of the experiments shown in FIG. 1B, 0.3 nM Gi2 reconstituted in phospholipid vesicles with 100 nM TrM-peptide 14 was exposed to various concentrations of ACGi2, and GTPγS binding was measured (.diamond-solid.). […]
For orientation: GTPγS is a poorly hydrolysed GTP analogue; its binding reports G protein activation.

Assay [2] deals with T1, Gi2. In words: GTPγS binding assay, peptide 14-induced Gi2 activation. It counts as biochemical, bovine. As for the experimental part:
Materials and Methods The in vitro assays described below utilize the couplone portion of each of a number of G-coupled receptors, instead of an intact receptor molecule, as a means for activating the corresponding anticouplone or intact G-protein. Except as noted below, Gi2 used in this study was trimeric Gi2 (i.e., Gi2 αβγ) purified from bovine brain to near homogeneity (Katada et al., FEBS Lett. 213:353-358 (1987), stored in buffer A (20 mM hepes/NaOH (pH 7.4), 1 mM EDTA, and 0.7% CHAPS), and diluted≥10 fold for assays. The Gi2 used for the reconstitution experiment was trimeric Gi2 purified from bovine spleen to homogeneity and dissolved in buffer B (Morishita et al., 1989). Gi3 α (Morishita et al., Biochem. Biophys. Res. Commun. 172:249-255 (1990), was purified from bovine spleen and used in combination with 1.5-fold concentrated Gβγ (Katada et al., 1987). This preparation of Gi3 α was 10-20% contaminated by Gi1 α, but not by other G proteins. Trimeric Gs and Gβγ purified from bovine brain to near homogeneity (Katada et al., 1987) were also stored in buffer A.
(§1) GTPγS binding Assay--GTPγS binding to G proteins was assayed at 37° C. in 20 mM Hepes/NaOH buffer (pH 7.4) containing 130 μM MgCl2, 110 μM EDTA and 60 nM [^35 S]GTPγS, as described previously (Okamoto et al., 1990). GTPγS binding to polypeptides was negligible. The total amount of G protein was measured as maximal GTPγS binding at room temperature, as described (Okamoto et al., Cell 67:723-730, 1991a). [^35 S]GTPγS was purchased from DuPont-New England Nuclear. Binding of GTPγS to G proteins obeyed first-order kinetics according to the equation ln[(BT-B)/BT]=-kapp t, where B is the binding at time t and BT is the total binding observable at an infinite time. Thus, the apparent first-order rate constant for GTPγS binding (kapp), which is equal to the slope of the tangent to the GTPγS binding curve at time 0 and represents the actual GTPγS binding rate, was calculated from this equation.
In the experiment illustrated in FIG. 1A, 10 nM Gi2 was incubated with 30 μM peptide 14 (RVGLVRGEKARKGK; SEQ ID NO: 27), the couplone portion of the IGF-II receptor, in the presence of various concentrations of (.quadrature.) ACGi2 (DAVTDVIIKNNLKDC; SEQ ID NO: 3), (567 ) the control Gi2 α Glu297-Asp310 peptide (EAASYIQSKFEKLN; SEQ ID NO: 18), or (.diamond.) the control Gi2 α Lys346-Phe355 peptide (KNNLKDCGLF; SEQ ID NO: 19) for 5 min under the GTPγS binding assay conditions described above, and GTPγS binding to G proteins was measured. The effect of ACGi2 on Gi2 in the absence of peptide 14 is indicated by .box-solid.. Percent stimulation of GTPγS binding was calculated by subtracting the basal fractional binding and dividing by the stimulated fractional binding observed in the absence of ACGi2. The basal fractional binding (=0%) was 0.39 mol GTPγS binding/mol Gi /5 min (5 min^-1). The 100% increase represents the GTPγS binding of 0.85 (5 min^-1). Values in all figures represent the mean ±S.E. of three experiments.
To verify the notion that ACGi2 acts on Gi2 itself, and not on receptor sequences, two series of experiments were performed. First, the dose-response curve for peptide 14 action on Gi2 in the presence of various concentrations of ACGi2 was generated (FIG. 2A). Following incubation of 10 nM Gi2 with various concentrations of peptide 14 in the absence (.quadrature.) or presence of 10 μM (.diamond-solid.) or 30 μM (.box-solid.) ACGi2 for 5 min, GTPγS binding was assayed; fractional GTPγS binding to Gi2 is indicated in the figure.
The second series of experiments investigated the effect of ACGi2 on lower concentrations of Gi2 that had been activated by peptide 14 to the same extent (FIG. 2B). 1 nM Gi2 was incubated for 5 min with 3 μM peptide 14 in the presence of various concentrations of ACGi2, and GTPγS binding was measured. The fractional GTPγS binding at 0% and 100% in this experiment was 0.40 and 0.55 (5 min^-1), respectively. […]

Another assay concerns the target Gi1 (Bos taurus, UniProt P63097). The assay can be described thus: GTPγS binding, peptide 14-induced Gi1 activation. It counts as biochemical. As to conditions: high concentrations (≥30 μM) of ACGi2; 10 nM Gi1, 30 μM peptide 14, 4 min. As for the experimental part:
as §1
Peptide 14 is capable of activating Gi1 and Gi3 as well as Gi2 (Okamoto et al., 1990). The effect of ACGi2 on peptide 14-induced activation of these Gi proteins was examined as follows: 10 nM Gi1 (.quadrature.) or Gi3 (.diamond-solid.) was incubated with 30 μM peptide 14 in the presence of various concentrations of ACGi2 for 4 min, and GTPβS binding was measured. The fractional GTPγS binding to Gi1 or Gi3 at 0% was (in 4 min^-1) 0.38 or 0.30, and that at 100% was 0.54 or 0.63, respectively.

T1 sequence (A7MBH9 2-355 limits assumed): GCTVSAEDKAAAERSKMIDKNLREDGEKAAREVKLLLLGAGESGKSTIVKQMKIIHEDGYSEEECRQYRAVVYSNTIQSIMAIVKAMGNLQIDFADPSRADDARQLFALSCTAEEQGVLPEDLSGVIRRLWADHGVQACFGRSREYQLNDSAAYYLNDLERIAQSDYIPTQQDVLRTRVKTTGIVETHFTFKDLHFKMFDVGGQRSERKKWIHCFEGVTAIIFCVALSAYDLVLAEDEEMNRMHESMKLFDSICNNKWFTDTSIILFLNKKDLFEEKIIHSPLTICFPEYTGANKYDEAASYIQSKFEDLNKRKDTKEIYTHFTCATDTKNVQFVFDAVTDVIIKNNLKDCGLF
T1 sequence (P62871 2-340 partner limits assumed): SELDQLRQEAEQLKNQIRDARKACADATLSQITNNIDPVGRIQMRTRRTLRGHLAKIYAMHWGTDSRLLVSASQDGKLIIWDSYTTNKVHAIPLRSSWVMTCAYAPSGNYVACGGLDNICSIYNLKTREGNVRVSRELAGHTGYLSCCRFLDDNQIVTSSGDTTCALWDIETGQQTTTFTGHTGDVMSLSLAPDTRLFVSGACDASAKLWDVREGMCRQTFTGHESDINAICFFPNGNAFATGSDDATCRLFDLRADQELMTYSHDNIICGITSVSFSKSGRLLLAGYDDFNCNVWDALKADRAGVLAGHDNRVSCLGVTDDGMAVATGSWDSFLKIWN
T1 sequence (P63212 2-68 partner limits assumed): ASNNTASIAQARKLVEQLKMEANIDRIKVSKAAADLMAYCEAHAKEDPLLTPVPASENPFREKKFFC
Gi1, sequence (P63097 2-354 limits assumed): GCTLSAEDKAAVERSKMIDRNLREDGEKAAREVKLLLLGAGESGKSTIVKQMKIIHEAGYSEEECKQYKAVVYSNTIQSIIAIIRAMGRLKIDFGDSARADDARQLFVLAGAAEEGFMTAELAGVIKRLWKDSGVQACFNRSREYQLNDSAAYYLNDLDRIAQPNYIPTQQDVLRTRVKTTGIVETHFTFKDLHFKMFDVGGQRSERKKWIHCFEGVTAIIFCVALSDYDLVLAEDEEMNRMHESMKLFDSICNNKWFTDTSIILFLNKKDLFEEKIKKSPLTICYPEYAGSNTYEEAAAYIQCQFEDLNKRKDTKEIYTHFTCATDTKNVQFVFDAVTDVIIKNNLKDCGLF
Gi1, sequence (P62871 2-340 partner limits assumed): as the sequence (P62871 2-340 partner limits assumed) above
Gi1, sequence (P63212 2-68 partner limits assumed): as the sequence (P63212 2-68 partner limits assumed) above

In the case of “DAVTDVIIKNNLKDC [ACGi2, DAVTDVIIKNNLKDC]”, the IC50 – broadly, the concentration at which inhibition is half-maximal – at Gi2 [1] was 3 µM; on Gi2 [2] (10 nM Gi2, 30 μM peptide 14, 5 min, read-out: IC50, inhibition of peptide 14-induced GTPγS binding to Gi2), roughly 3 µM. In addition, the inhibition – broadly, the change of the read-out against control, counted positive when it falls – at 3 µM at Gi2 [2] (at 3 μM ACGi2 (so in the source), read-out: inhibition of stimulation of Gi2) stood at 100%. Moreover, the “maximal inhibition of peptide 14-induced Gi1 activation” value on Gi1 came out at 30%.
